Reference: patent publication US9259409B2, “Compositions comprising a prostaglandin for treating neuropsychiatric conditions” (Inceptum Research & Therapeutics, Inc., priority 2011, dated 2016)

Assays:
GSK-3 = assay: Distalless (Dll) expression in Drosophila wing imaginal discs as assay of GSK-3 function; format: cell-based
[1] = system: human oligodendrocyte cell line MO3-13; assay: Immuno-slotblot assay for secreted BDNF, oligodendrocyte conditioned media; format: cell-based; settings: 1 μM, 5 μM, 10 μM; oligodendrocytes media; vs non-treated and DMSO
Procedure: (§1) Human embryonic kidney 293T (HEK293T) cells, U87MG astrocytoma and the human oligodendrocyte cell line MO3-13 were grown in Dubelco Minimal Eagle Media (DMEM) (Invitrogen, Carlsbad, Calif., USA) supplemented with 5% heat inactivated fetal bovine serum. Cells were grown to 70% confluence prior to treatment. HEK293T cells were treated individually with […] latanoprost, unoprostone, bimatoprost, fluprostenol, PGE2, and PGF2α in serum-free DMEM. Cells were exposed to drug for 3 hours at 37° C. in a 5% CO2 incubator. U87MG cells were grown to 70% confluence prior to treatment. […]
(§2) Cell culture media from cells that were not treated or treated with DMSO, 1, 5 or 10 μM latanoprost treated was collected in 15-mL screw cap polypropylene tubes from cell culture dishes. […] The relative amount of BDNF secreted by U87MG astrocytoma and MO3-13 oligodendrocyte cell lines were determined by an immune-slotblot method in which 200 μL of conditioned media was applied in triplicate to nitrocellulose membrane pre-wet in water in a Biodot (SF) ultrafiltration unit (Bio-Rad Laboratories, Mississauga, ON, Canada) under vacuum. […] After washing the membrane as above, the bound secondary antibody was detected by ECL Advance™ Western blot HRP substrate (GE Healthcare) using a ChemiDoc™ MP Imaging System (Bio-Rad Laboratories). The relative amount of BDNF was determined by using ImageLab™ software (BioRad). […]

U87MG astrocytoma = assay: Immuno-slotblot assay for secreted BDNF, astrocytoma conditioned media; format: cell-based, human; settings: 1 μM, 5 μM, 10 μM; astrocyte conditioned media; vs non-treated and DMSO
Procedure: as §1, §2

For `CC(C)OC(=O)CCC/C=C\C[C@@H]1[C@@H](CC[C@@H](O)CCc2ccccc2)[C@H](O)C[C@@H]1O` [latanoprost, propan-2-yl-(Z)-7-[(1R,2R,3R,5S)-3,5-dihydroxy-2-[(3R)-3-hydroxy-5-phenylpentyl]cyclopentyl]-hept-5-enoate], the “Dll expression in wing imaginal discs” value (GSK-3; 20 μM, Dll lacZ, vs DMSO) was “increased Dll expression”, the “Dll activation (DLL protein levels in wing pouch)” value (GSK-3; increasing doses 1 μM, 5 μM, 10 μM and 20 μM, vs DMSO control vehicle) was “significant activation of Dll” and the “amount of BDNF secreted” value [1] was “no significant increase”. The “amount of BDNF secreted” value (U87MG astrocytoma) was “increased significantly”.
